PubChem BioAssay (NCI)
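A five-concentration, 48-hour dose response in 96-well plates underlies each endpoint, interpolated linearly between surrounding concentrations. At the GI50, growth is halved. TGI marks complete inhibition of growth.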

Key:
Experiment in all cases: NCI tumour cell line growth inhibition, 48 h
786-0 renal = tested on: 786-0 renal
A498 renal = tested on: A498 renal
A549 NSCLC = tested on: A549 NSCLC
ACHN renal = tested on: ACHN renal
BT-549 breast = tested on: BT-549 breast
CAKI-1 renal = tested on: CAKI-1 renal
CCRF-CEM leukemia = tested on: CCRF-CEM leukemia
COLO 205 colon = tested on: COLO 205 colon
DU-145 prostate = tested on: DU-145 prostate
EKVX NSCLC = tested on: EKVX NSCLC
HCC-2998 colon = tested on: HCC-2998 colon
HCT-116 colon = tested on: HCT-116 colon
HCT-15 colon = tested on: HCT-15 colon
HL-60(TB) leukemia = tested on: HL-60(TB) leukemia
HOP-62 NSCLC = tested on: HOP-62 NSCLC
HOP-92 NSCLC = tested on: HOP-92 NSCLC
HS 578T breast = tested on: HS 578T breast
HT29 colon = tested on: HT29 colon
IGROV1 ovarian = tested on: IGROV1 ovarian
K-562 leukemia = tested on: K-562 leukemia
KM12 colon = tested on: KM12 colon
LOX IMVI melanoma = tested on: LOX IMVI melanoma
M14 melanoma = tested on: M14 melanoma
MALME-3M melanoma = tested on: MALME-3M melanoma
MCF7 breast = tested on: MCF7 breast
MDA-MB-231 breast = tested on: MDA-MB-231 breast
MDA-MB-435 = tested on: MDA-MB-435
MOLT-4 leukemia = tested on: MOLT-4 leukemia
NCI-H226 lung = tested on: NCI-H226 lung
NCI-H23 lung = tested on: NCI-H23 lung
NCI-H460 lung = tested on: NCI-H460 lung
NCI-H522 lung = tested on: NCI-H522 lung
NCI/ADR-RES ovarian = tested on: NCI/ADR-RES ovarian
OVCAR-3 ovarian = tested on: OVCAR-3 ovarian
OVCAR-4 ovarian = tested on: OVCAR-4 ovarian
OVCAR-5 ovarian = tested on: OVCAR-5 ovarian
OVCAR-8 ovarian = tested on: OVCAR-8 ovarian
PC-3 prostate = tested on: PC-3 prostate
RPMI-8226 leukemia = tested on: RPMI-8226 leukemia
RXF 393 renal = tested on: RXF 393 renal
SF-268 CNS = tested on: SF-268 CNS
SF-295 CNS = tested on: SF-295 CNS
SF-539 CNS = tested on: SF-539 CNS
SK-MEL-2 melanoma = tested on: SK-MEL-2 melanoma
SK-MEL-28 melanoma = tested on: SK-MEL-28 melanoma
SK-MEL-5 melanoma = tested on: SK-MEL-5 melanoma
SK-OV-3 ovarian = tested on: SK-OV-3 ovarian
SN12C renal = tested on: SN12C renal
SNB-19 CNS = tested on: SNB-19 CNS
SNB-75 CNS = tested on: SNB-75 CNS
SR leukemia = tested on: SR leukemia
SW-620 colon = tested on: SW-620 colon
T-47D breast = tested on: T-47D breast
TK-10 renal = tested on: TK-10 renal
U251 CNS = tested on: U251 CNS
UACC-257 melanoma = tested on: UACC-257 melanoma
UACC-62 melanoma = tested on: UACC-62 melanoma
UO-31 renal = tested on: UO-31 renal

How did the GI50 (786-0 renal) turn out when O=c1[nH]c(-c2ccc(C(F)(F)F)cc2)nc2c1CSCC2 was run?
Its GI50 is 35.3 µM.

And the TGI (786-0 renal)?
The TGI was greater than 100 µM.

And the GI50 (A498 renal)?
The GI50 was 22.9 µM.

What about the TGI (A498 renal) of the same compound?
Its TGI is 97.3 µM.

What about the GI50 (A549 NSCLC) of the same compound?
The GI50 was 32.9 µM.

What about the TGI (A549 NSCLC) of the same compound?
The TGI was greater than 100 µM.

What about the GI50 (ACHN renal) of the same compound?
Its GI50 is 32.9 µM.

And the TGI (ACHN renal)?
Its TGI is greater than 100 µM.

What about the GI50 (BT-549 breast) of the same compound?
Its GI50 is greater than 94.3 µM.

What about the TGI (BT-549 breast) of the same compound?
Its TGI is greater than 100 µM.

What about the GI50 (CAKI-1 renal) of the same compound?
The GI50 was 13.7 µM.

And the TGI (CAKI-1 renal)?
The TGI was greater than 100 µM.

What about the GI50 (CCRF-CEM leukemia) of the same compound?
Its GI50 is greater than 100 µM.

What about the TGI (CCRF-CEM leukemia) of the same compound?
The TGI was greater than 100 µM.

What about the GI50 (COLO 205 colon) of the same compound?
Its GI50 is greater than 100 µM.

And the TGI (COLO 205 colon)?
Its TGI is greater than 100 µM.

And the GI50 (DU-145 prostate)?
The GI50 was greater than 84.5 µM.

What about the TGI (DU-145 prostate) of the same compound?
Its TGI is greater than 100 µM.

What about the GI50 (EKVX NSCLC) of the same compound?
The GI50 was greater than 42.1 µM.

What about the TGI (EKVX NSCLC) of the same compound?
The TGI was greater than 100 µM.

What about the GI50 (HCC-2998 colon) of the same compound?
Its GI50 is greater than 81.2 µM.

What about the TGI (HCC-2998 colon) of the same compound?
Its TGI is greater than 100 µM.

And the GI50 (HCT-116 colon)?
Its GI50 is greater than 63.7 µM.

What about the TGI (HCT-116 colon) of the same compound?
Its TGI is greater than 100 µM.

What about the GI50 (HCT-15 colon) of the same compound?
Its GI50 is greater than 100 µM.

And the TGI (HCT-15 colon)?
Its TGI is greater than 100 µM.

What about the GI50 (HL-60(TB) leukemia) of the same compound?
Its GI50 is greater than 100 µM.

And the TGI (HL-60(TB) leukemia)?
Its TGI is greater than 100 µM.

What about the GI50 (HOP-62 NSCLC) of the same compound?
The GI50 was 17.5 µM.

And the TGI (HOP-62 NSCLC)?
The TGI was 51.2 µM.

And the GI50 (HOP-92 NSCLC)?
Its GI50 is 17.1 µM.

And the TGI (HOP-92 NSCLC)?
The TGI was 46.3 µM.

And the GI50 (HS 578T breast)?
Its GI50 is 45.8 µM.

And the TGI (HS 578T breast)?
Its TGI is greater than 100 µM.

What about the GI50 (HT29 colon) of the same compound?
The GI50 was greater than 76.8 µM.

And the TGI (HT29 colon)?
The TGI was greater than 100 µM.

What about the GI50 (IGROV1 ovarian) of the same compound?
The GI50 was 43.1 µM.

What about the TGI (IGROV1 ovarian) of the same compound?
Its TGI is greater than 100 µM.

And the GI50 (K-562 leukemia)?
Its GI50 is greater than 100 µM.

What about the TGI (K-562 leukemia) of the same compound?
Its TGI is greater than 100 µM.

And the GI50 (KM12 colon)?
Its GI50 is greater than 100 µM.

What about the TGI (KM12 colon) of the same compound?
Its TGI is greater than 100 µM.

What about the GI50 (LOX IMVI melanoma) of the same compound?
The GI50 was greater than 71.1 µM.

And the TGI (LOX IMVI melanoma)?
The TGI was greater than 100 µM.

What about the GI50 (M14 melanoma) of the same compound?
Its GI50 is 68.7 µM.

What about the TGI (M14 melanoma) of the same compound?
The TGI was greater than 100 µM.

And the GI50 (MALME-3M melanoma)?
The GI50 was 30.9 µM.

And the TGI (MALME-3M melanoma)?
The TGI was greater than 100 µM.

What about the GI50 (MCF7 breast) of the same compound?
The GI50 was greater than 100 µM.

What about the TGI (MCF7 breast) of the same compound?
The TGI was greater than 100 µM.

And the GI50 (MDA-MB-231 breast)?
The GI50 was 40.4 µM.

And the TGI (MDA-MB-231 breast)?
Its TGI is greater than 100 µM.

What about the GI50 (MDA-MB-435) of the same compound?
Its GI50 is greater than 100 µM.

What about the TGI (MDA-MB-435) of the same compound?
Its TGI is greater than 100 µM.

And the GI50 (MOLT-4 leukemia)?
Its GI50 is greater than 100 µM.

What about the TGI (MOLT-4 leukemia) of the same compound?
Its TGI is greater than 100 µM.

What about the GI50 (NCI-H226 lung) of the same compound?
Its GI50 is 30.4 µM.

And the TGI (NCI-H226 lung)?
The TGI was greater than 100 µM.

And the GI50 (NCI-H23 lung)?
Its GI50 is 41.9 µM.

And the TGI (NCI-H23 lung)?
Its TGI is greater than 100 µM.

And the GI50 (NCI-H460 lung)?
Its GI50 is greater than 100 µM.

What about the TGI (NCI-H460 lung) of the same compound?
Its TGI is greater than 100 µM.

And the GI50 (NCI-H522 lung)?
The GI50 was greater than 100 µM.

What about the TGI (NCI-H522 lung) of the same compound?
The TGI was greater than 100 µM.

What about the GI50 (NCI/ADR-RES ovarian) of the same compound?
Its GI50 is 35.8 µM.

What about the TGI (NCI/ADR-RES ovarian) of the same compound?
Its TGI is greater than 100 µM.

And the GI50 (OVCAR-3 ovarian)?
The GI50 was 27 µM.

And the TGI (OVCAR-3 ovarian)?
Its TGI is greater than 100 µM.

And the GI50 (OVCAR-4 ovarian)?
The GI50 was 20.1 µM.

And the TGI (OVCAR-4 ovarian)?
The TGI was greater than 100 µM.

What about the GI50 (OVCAR-5 ovarian) of the same compound?
Its GI50 is 79.9 µM.

And the TGI (OVCAR-5 ovarian)?
Its TGI is greater than 100 µM.

What about the GI50 (OVCAR-8 ovarian) of the same compound?
Its GI50 is 26.3 µM.

What about the TGI (OVCAR-8 ovarian) of the same compound?
The TGI was 99 µM.

And the GI50 (PC-3 prostate)?
The GI50 was greater than 77.3 µM.

And the TGI (PC-3 prostate)?
The TGI was greater than 100 µM.

What about the GI50 (RPMI-8226 leukemia) of the same compound?
The GI50 was greater than 100 µM.

And the TGI (RPMI-8226 leukemia)?
Its TGI is greater than 100 µM.

What about the GI50 (RXF 393 renal) of the same compound?
Its GI50 is 19.6 µM.

What about the TGI (RXF 393 renal) of the same compound?
The TGI was 65.8 µM.

What about the GI50 (SF-268 CNS) of the same compound?
Its GI50 is 53.2 µM.

What about the TGI (SF-268 CNS) of the same compound?
The TGI was greater than 100 µM.

And the GI50 (SF-295 CNS)?
Its GI50 is 52.7 µM.

And the TGI (SF-295 CNS)?
The TGI was greater than 100 µM.

And the GI50 (SF-539 CNS)?
The GI50 was greater than 100 µM.

What about the TGI (SF-539 CNS) of the same compound?
Its TGI is greater than 100 µM.

And the GI50 (SK-MEL-2 melanoma)?
Its GI50 is 35.6 µM.

And the TGI (SK-MEL-2 melanoma)?
Its TGI is greater than 93.2 µM.

What about the GI50 (SK-MEL-28 melanoma) of the same compound?
Its GI50 is 80.3 µM.

And the TGI (SK-MEL-28 melanoma)?
The TGI was greater than 100 µM.

What about the GI50 (SK-MEL-5 melanoma) of the same compound?
The GI50 was 88.9 µM.

And the TGI (SK-MEL-5 melanoma)?
The TGI was greater than 100 µM.

What about the GI50 (SK-OV-3 ovarian) of the same compound?
The GI50 was 30 µM.

What about the TGI (SK-OV-3 ovarian) of the same compound?
Its TGI is 99.8 µM.

And the GI50 (SN12C renal)?
The GI50 was greater than 100 µM.

What about the TGI (SN12C renal) of the same compound?
The TGI was greater than 100 µM.

What about the GI50 (SNB-19 CNS) of the same compound?
Its GI50 is 47.3 µM.

And the TGI (SNB-19 CNS)?
Its TGI is greater than 100 µM.

What about the GI50 (SNB-75 CNS) of the same compound?
The GI50 was 21.2 µM.

What about the TGI (SNB-75 CNS) of the same compound?
Its TGI is 56.2 µM.

And the GI50 (SR leukemia)?
The GI50 was greater than 100 µM.

What about the TGI (SR leukemia) of the same compound?
Its TGI is greater than 100 µM.

And the GI50 (SW-620 colon)?
Its GI50 is greater than 100 µM.

What about the TGI (SW-620 colon) of the same compound?
Its TGI is greater than 100 µM.

What about the GI50 (T-47D breast) of the same compound?
Its GI50 is 23.7 µM.

What about the TGI (T-47D breast) of the same compound?
Its TGI is 98.1 µM.

And the GI50 (TK-10 renal)?
Its GI50 is 23.8 µM.

What about the TGI (TK-10 renal) of the same compound?
The TGI was 66.8 µM.

What about the GI50 (U251 CNS) of the same compound?
Its GI50 is 17.9 µM.

And the TGI (U251 CNS)?
Its TGI is greater than 89.6 µM.

And the GI50 (UACC-257 melanoma)?
Its GI50 is greater than 65.2 µM.

What about the TGI (UACC-257 melanoma) of the same compound?
Its TGI is greater than 100 µM.

What about the GI50 (UACC-62 melanoma) of the same compound?
Its GI50 is greater than 100 µM.

And the TGI (UACC-62 melanoma)?
The TGI was greater than 100 µM.

What about the GI50 (UO-31 renal) of the same compound?
The GI50 was 5.43 µM.

And the TGI (UO-31 renal)?
The TGI was greater than 67.4 µM.
